How the values were obtained:
Assay type in all cases: physicochemical
[1] = Solubilization of NACA in ORA-SWEET and water
Experimental: A study was conducted to determine the solubilization of NACA in ORA-SWEET® (Ora-Sweet is a commercially available syrup vehicle containing water, sucrose, glycerin, sorbitol, flavoring, buffering agents (citric acid and/or sodium phosphate), methyl paraben and potassium sorbate, pH 4.2 manufactured by Paddock Laboratories, Inc., Minneapolis, Minnesota). HPLC equipment and glass containers and stirrers were utilized.
Therefore, NACA was dissolved in 50 mL water followed by 50 mL Ora-Sweet, shaken to dissolve in an opaque plastic bottle with closure and provided to subject for self-administration (oral ingestion).

[2] = Micronization of NACA and stability of the 1% NACA formulation
Source text: The relation between micronization conditions and an initial increase of the degradation product diNACA was further investigated. […] Therefore, the zirconium oxide milling process was further investigated and successfully optimized regarding particle size distribution, milling parameters and impurity profile for the 1% NACA formulation. […] The particle size distribution by laser diffraction analysis was ×10=1.3 μm, ×50=4.7 μm and ×90=12.3 μm. Batches were prepared and found to be stable for up to 4 weeks at ambient temperature.

[3] = Oxidation of NACA on exposure to air; conditions: exposed to air
Source text: These efforts to increase purity focused on the major impurities as measured by HPLC, namely, diNACA, DTT and cyclic DTT. […] Ethanol and methyl t-butyl Ether (MTBE) used in the reduction and solvent-exchange were degassed in an effort to reduce diNACA.

[4] = Stability and dissociation of NACA/urea co-crystal (secondary co-crystal screen)
Experimental: NACA/Urea Co-crystal. A primary co-crystal screen was conducted where 28 potential co-crystal formers (CCFs) were screened (Table 18) in 6 solvent systems under 2 process relevant crystallization conditions, namely, thermal maturation and evaporation. A NACA/urea co-crystal was identified (FIG. 15). […] NMR analysis confirmed an approximate stoichiometric content of urea contained within the material. The material appeared to be stable under ambient conditions and elevated temperature (80° C.) but unstable when stored at high humidity for prolonged periods, showing degradation to the diNACA. […] An additional DSC experiment with post-XRPD analysis confirmed that the exothermic event observed during the DSC cooling cycle is a recrystallization to NACA.

[5] = Stability of NACA/excipient mixtures (excipient screening); conditions: NACA/excipient mixtures after 4 weeks at 40° C./75% RH
Experimental: NACA Tablets, 250 mg, are packaged in high density polyethylene (HDPE) bottles with foil induction seal and a white polyproplyene screw-top closure. Excipients used for the formulation meet compendial standards. Lactose functions as a filler. Microcrystalline cellulose functions as a filler. Croscarmellose Sodium functions as a disintegrant. Stearic Acid functions as a lubricant. Excipients were screened by assessing the stability of NACA in mixtures with each excipient.

CC(=O)N[C@@H](CS)C(N)=O
Stirring time required to achieve a solution ([1]; NACA at 80 mg/ml in ORA-SWEET): 20 to 30 min | Dissolution in water ([1]; water, shaking for 30 seconds): readily dissolved | Change of degradation product diNACA on micronization ([2]; stainless steel grinding jars): time dependent increase of the degradation product diNACA | Change of degradation product diNACA on micronization ([2]; zirconium oxide jars and balls): did not lead to an initial increase of the degradation product diNACA | Oxidation on exposure to air [3]: Oxidation of NACA occurs

CC(=O)N[C@@H](CS)C(N)=O.NC(N)=O [NACA/urea pattern 1 material]
Stability under ambient conditions and elevated temperature ([4]; ambient conditions and 80° C.): stable | Dissociation in water and high water activity mixtures ([4]; deionized water and solvent/water mixtures with a high water activity): found to dissociate | Dissociation in organic solvents and low water activity mixtures ([4]; organic solvents and solvent/water mixtures with low water activity): No signs of dissociation | Stability at high humidity ([4]; stored at high humidity for prolonged periods, degradation to diNACA): unstable

CC(=O)N[C@H](CS)C(N)=O
% Assay [5]: 95.3%
